Measurements taken from US9790230B2 (Hoffmann-La Roche Inc., priority 2015, dated 2017).

Columns and labels:
rat TAAR1 = rat TAAR1 (Rattus norvegicus (Rat), UniProt Q923Y9); assay: Radioligand binding assay on rat TAAR1;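 note: membranes from HEK293 cells stably transfected with rat TAAR1, tritiated TAAR1 radioligand, 1 h incubation at 4 °C, nonspecific binding determined with excess unlabeled ligand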
Protocol: (§1) Membrane Preparation and Radioligand Binding.
HEK-293 cells stably expressing rat TAAR1 were maintained at 37° C. and 5% CO2 in DMEM high glucose medium, containing fetal calf serum (10%, heat inactivated for 30 min at 56° C.), penicillin/streptomycin (1%), and 375 μg/ml geneticin (Gibco). Cells were released from culture flasks using trypsin/EDTA, harvested, washed twice with ice-cold PBS (without Ca^2+ and Mg^2+), pelleted at 1'000 rpm for 5 min at 4° C., frozen and stored at −80° C. Frozen pellets were suspended in 20 ml HEPES-NaOH (20 mM, pH 7.4) containing 10 mM EDTA and homogenized with a Polytron (PT 6000, Kinematica) at 14′000 rpm for 20 s. The homogenate was centrifuged at 48'000×g for 30 min at 4° C. Subsequently, the supernatant was removed and discarded, and the pellet resuspended in 20 ml HEPES-NaOH (20 mM, pH 7.4) containing 0.1 mM EDTA using the Polytron (20 s at 14'000 rpm). This procedure was repeated and the final pellet resuspended in HEPES-NaOH containing 0.1 mM EDTA and homogenized using the Polytron. Typically, aliquots of 2 ml membrane portions were stored at −80° C. With each new membrane batch the dissociation constant (Kd) was determined via a saturation curve. […] Nonspecific binding was defined as the amount of 3 [H]—(S)-4-[(ethyl-phenyl-amino)-methyl]-4,5-dihydro-oxazol-2-ylamine bound in the presence of 10 M unlabeled ligand. All compounds were tested at a broad range of concentrations (10 pM to 10 μM) in duplicates. […] The 96 deep well plates were incubated for 1 hr at 4° C. Incubations were terminated by rapid filtration through Unifilter-96 plates (Packard Instrument Company) and glass filters GF/C (Perkin Elmer) presoaked for 1 hr in polyethylenimine (0.3%) and washed 3 times with 1 ml of cold binding buffer. After addition of 45 μl of Microscint 40 (PerkinElmer) the Unifilter-96 plate was sealed and after 1 hr the radioactivity counted using a TopCount Microplate Scintillation Counter (Packard Instrument Company).

mouse TAAR1 = mouse TAAR1 (Mus musculus (Mouse), UniProt Q923Y8); assay: Radioligand binding assay on mouse TAAR1
Sequence of mouse TAAR1 (Q923Y8 whole entry): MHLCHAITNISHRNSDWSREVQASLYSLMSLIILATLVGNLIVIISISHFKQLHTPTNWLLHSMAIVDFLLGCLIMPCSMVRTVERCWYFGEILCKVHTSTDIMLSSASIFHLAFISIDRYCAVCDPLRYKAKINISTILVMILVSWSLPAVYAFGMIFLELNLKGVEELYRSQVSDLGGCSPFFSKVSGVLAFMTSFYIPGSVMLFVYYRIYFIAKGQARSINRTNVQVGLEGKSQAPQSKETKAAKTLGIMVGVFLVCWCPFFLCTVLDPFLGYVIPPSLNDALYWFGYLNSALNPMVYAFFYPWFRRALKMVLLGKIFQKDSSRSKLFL
Protocol: Radioligand Binding Assay on Mouse TAAR1
as §1
HEK-293 cells stably expressing mouse TAAR1 were maintained at 37° C. and 5% CO2 in DMEM high glucose medium, containing fetal calf serum (10%, heat inactivated for 30 min at 56° C.), penicillin/streptomycin (1%), and 375 μg/ml geneticin (Gibco). Cells were released from culture flasks using trypsin/EDTA, harvested, washed twice with ice-cold PBS (without Ca^2+ and Mg^2+), pelleted at 1'000 rpm for 5 min at 4° C., frozen and stored at −80° C. Frozen pellets were suspended in 20 ml HEPES-NaOH (20 mM, pH 7.4) containing 10 mM EDTA and homogenized with a Polytron (PT 6000, Kinematica) at 14'000 rpm for 20 s. The homogenate was centrifuged at 48'000×g for 30 min at 4° C. Subsequently, the supernatant was removed and discarded, and the pellet resuspended in 20 ml HEPES-NaOH (20 mM, pH 7.4) containing 0.1 mM EDTA using the Polytron (20 s at 14'000 rpm). This procedure was repeated and the final pellet resuspended in HEPES-NaOH containing 0.1 mM EDTA and homogenized using the Polytron. Typically, aliquots of 2 ml membrane portions were stored at −80° C. With each new membrane batch the dissociation constant (Kd) was determined via a saturation curve. The TAAR1 radioligand ^3[H]—(S)-4-[(ethyl-phenyl-amino)-methyl]-4,5-dihydro-oxazol-2-ylamine (described in WO 2008/098857) was used at a concentration equal to the calculated Kd value, that was usually around 0.7 nM, resulting in the binding of approximately 0.5% of the radioligand and a specific binding representing approximately 70% of the total binding. Nonspecific binding was defined as the amount of ^3[H]—(S)-4-[(ethyl-phenyl-amino)-methyl]-4,5-dihydro-oxazol-2-ylamine bound in the presence of 10 M unlabeled ligand. All compounds were tested at a broad range of concentrations (10 pM to 10 μM) in duplicates. […] The 96 deep well plates were incubated for 1 hr at 4° C. Incubations were terminated by rapid filtration through Unifilter-96 plates (Packard Instrument Company) and glass filters GF/C (Perkin Elmer) presoaked for 1 hr in polyethylenimine (0.3%) and washed 3 times with 1 ml of cold binding buffer. After addition of 45 μl of Microscint 40 (PerkinElmer) the Unifilter-96 plate was sealed and after 1 hr the radioactivity counted using a TopCount Microplate Scintillation Counter (Packard Instrument Company).

Sequence of rat TAAR1 (Q923Y9 whole entry): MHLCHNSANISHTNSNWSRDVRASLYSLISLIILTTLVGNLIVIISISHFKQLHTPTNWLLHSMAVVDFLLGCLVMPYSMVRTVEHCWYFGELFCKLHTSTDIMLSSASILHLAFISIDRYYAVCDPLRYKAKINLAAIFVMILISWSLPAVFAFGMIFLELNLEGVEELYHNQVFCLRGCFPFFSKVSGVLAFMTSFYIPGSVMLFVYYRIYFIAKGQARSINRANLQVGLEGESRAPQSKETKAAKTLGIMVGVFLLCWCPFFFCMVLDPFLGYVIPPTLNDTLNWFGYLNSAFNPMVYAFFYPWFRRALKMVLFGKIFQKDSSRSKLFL

| Structure (SMILES) | Ki (rat TAAR1) [µM] | Ki (mouse TAAR1) [µM] |
| --- | --- | --- |
| O=C(Nc1cccc([C@@H]2O[C@H]3CN[C@@H]2C3)c1)c1cccc(Cl)c1 [Example 1, 3-Chloro-N-[3-[(1R,3S,4R)-2-oxa-5-azabicyclo[2.2.1]heptan-3-yl]phenyl]benzamide] | 0.132 | 2.99 |
| O=C(Nc1cccc([C@@H]2O[C@H]3CN[C@@H]2C3)c1)c1ccc(Cl)cc1 [Example 2, 4-Chloro-N-[3-[(1R,3S,4R)-2-oxa-5-azabicyclo[2.2.1]heptan-3-yl]phenyl]benzamide] | 0.0794 | 2.51 |
| O=C(Nc1ccc(C(F)(F)F)cc1)Nc1cccc([C@@H]2O[C@H]3CN[C@@H]2C3)c1 [Example 3, 1-[3-[(1R,3S,4R)-2-Oxa-5-azabicyclo[2.2.1]heptan-3-yl]phenyl]-3-[4-(trifluoromethyl)phenyl]urea] | 0.0029 | 0.986 |
| O=C(Nc1ccc(Cl)cc1)Nc1cccc([C@@H]2O[C@H]3CN[C@@H]2C3)c1 [Example 4, 1-(4-Chlorophenyl)-3-[3-[(1R,3S,4R)-2-oxa-5-azabicyclo[2.2.1]heptan-3-yl]phenyl]urea] | 0.0102 | 1.28 |
| O=C(Nc1cccc(Cl)c1)Nc1cccc([C@@H]2O[C@H]3CN[C@@H]2C3)c1 [Example 5, 1-(3-Chlorophenyl)-3-[3-[(1R,3S,4R)-2-oxa-5-azabicyclo[2.2.1]heptan-3-yl]phenyl]urea] | 0.0192 | 1.33 |
| c1ccc([C@@H]2O[C@H]3CN[C@@H]2C3)cc1 [Example 6, (1R,3S,4R)-3-Phenyl-2-oxa-5-azabicyclo[2.2.1]heptane] | 0.814 | 1.54 |
| O=C(Nc1ccc([C@@H]2O[C@H]3CN[C@@H]2C3)cc1)c1ccc(Cl)cc1 [Example 7, 4-Chloro-N-[4-[(1R,3S,4R)-2-oxa-5-azabicyclo[2.2.1]heptan-3-yl]phenyl]benzamide] | 0.106 | 0.0044 |
| O=C(Nc1ccc([C@H]2O[C@@H]3CN[C@H]2C3)cc1)c1cccc(Cl)c1 [Example 8, 3-Chloro-N-[4-[(1S,3R,4S)-2-oxa-5-azabicyclo[2.2.1]heptan-3-yl]phenyl]benzamide] | 0.21 | 0.0046 |
| c1ccc([C@H]2O[C@@H]3CN[C@H]2C3)cc1 [Example 9, (1S,3R,4S)-3-Phenyl-2-oxa-5-azabicyclo[2.2.1]heptane] | 0.369 | 0.0349 |
| O=C(Nc1ccc([C@@H]2O[C@H]3CN[C@@H]2C3)cc1)c1cccc(Cl)c1 [Example 10, 3-Chloro-N-[4-[(1R,3S,4R)-2-oxa-5-azabicyclo[2.2.1]heptan-3-yl]phenyl]benzamide] | 0.055 | 0.0042 |
| FC(F)(F)c1ccc(Nc2ccc([C@@H]3O[C@H]4CN[C@@H]3C4)cc2)nc1 [Example 11, N-[4-[(1R,3S,4R)-2-Oxa-5-azabicyclo[2.2.1]heptan-3-yl]phenyl]-5-(trifluoromethyl)pyridin-2-amine] | 0.0153 | 0.0039 |
| O=C(Nc1ccc([C@@H]2O[C@H]3CN[C@@H]2C3)cc1)c1ccc(OCC2CC2)cc1 [Example 12, 4-(Cyclopropylmethoxy)-N-[4-[(1R,3S,4R)-2-oxa-5-azabicyclo[2.2.1]heptan-3-yl]phenyl]benzamide] | 0.134 | 0.0067 |
| CCOc1ccc(C(=O)Nc2ccc([C@@H]3O[C@H]4CN[C@@H]3C4)cc2)cn1 [Example 13, 6-Ethoxy-N-[4-[(1R,3S,4R)-2-oxa-5-azabicyclo[2.2.1]heptan-3-yl]phenyl]pyridine-3-carboxamide] | 346 | 0.0063 |
| O=C(Nc1ccc([C@H]2O[C@@H]3CN[C@H]2C3)cc1)c1ccc(Cl)cc1 [Example 14, 4-Chloro-N-[4-[(1S,3R,4S)-2-oxa-5-azabicyclo[2.2.1]heptan-3-yl]phenyl]benzamide] | 0.192 | 0.005 |
| CCOc1ccc(C(=O)Nc2ccc([C@H]3O[C@@H]4CN[C@H]3C4)cc2)cn1 [Example 15, 6-Ethoxy-N-[4-[(1S,3R,4S)-2-oxa-5-azabicyclo[2.2.1]heptan-3-yl]phenyl]pyridine-3-carboxamide] | 1.9 | 0.0155 |
| O=C(Nc1ccc([C@H]2O[C@@H]3CN[C@H]2C3)cc1)c1ccc(OCC(F)(F)F)nc1 [Example 16, N-[4-[(1S,3R,4S)-2-Oxa-5-azabicyclo[2.2.1]heptan-3-yl]phenyl]-6-(2,2,2-trifluoroethoxy)pyridine-3-carboxamide] | 0.142 | 0.0118 |
| CCOc1ccc(C(=O)Nc2ccc([C@H]3O[C@@H]4CN[C@H]3C4)cc2)cc1 [Example 17, 4-Ethoxy-N-[4-[(1S,3R,4S)-2-oxa-5-azabicyclo[2.2.1]heptan-3-yl]phenyl]benzamide] | 0.693 | 0.0064 |
| O=C(Nc1ccc([C@H]2O[C@@H]3CN[C@H]2C3)cc1)c1cnc(C2CC2)nc1 [Example 18, 2-Cyclopropyl-N-[4-[(1S,3R,4S)-2-oxa-5-azabicyclo[2.2.1]heptan-3-yl]phenyl]pyrimidine-5-carboxamide] | 2.03 | 0.038 |

| Structure (SMILES) | Ki (rat TAAR1) [µM] | Ki (mouse TAAR1) [µM] |
| --- | --- | --- |
| FC(F)(F)c1ccc(Nc2ccc([C@H]3O[C@@H]4CN[C@H]3C4)cc2)nc1 [Example 19, N-[4-[(1S,3R,4S)-2-Oxa-5-azabicyclo[2.2.1]heptan-3-yl]phenyl]-5-(trifluoromethyl)pyridin-2-amine] | 0.0641 | 0.0071 |
| Clc1ccc(Nc2ccc([C@H]3O[C@@H]4CN[C@H]3C4)cc2)nc1 [Example 20, 5-Chloro-N-[4-[(1S,3R,4S)-2-oxa-5-azabicyclo[2.2.1]heptan-3-yl]phenyl]pyridin-2-amine] | 0.397 | 0.0041 |
| FC(F)(F)c1nccc(Nc2ccc([C@H]3O[C@@H]4CN[C@H]3C4)cc2)n1 [Example 21, N-[4-[(1S,3R,4S)-2-Oxa-5-azabicyclo[2.2.1]heptan-3-yl]phenyl]-2-(trifluoromethyl)pyrimidin-4-amine] | 0.633 | 0.0197 |
| FC(F)(F)c1cnc(Nc2ccc([C@H]3O[C@@H]4CN[C@H]3C4)cc2)cn1 [Example 22, N-[4-[(1S,3R,4S)-2-Oxa-5-azabicyclo[2.2.1]heptan-3-yl]phenyl]-5-(trifluoromethyl)pyrazin-2-amine] | 0.34 | 0.0076 |
| FC(F)(F)c1cnc(Nc2ccc([C@H]3O[C@@H]4CN[C@H]3C4)cc2)nc1 [Example 23, N-[4-[(1S,3R,4S)-2-Oxa-5-azabicyclo[2.2.1]heptan-3-yl]phenyl]-5-(trifluoromethyl)pyrimidin-2-amine] | 0.146 | 0.0157 |
| Clc1ccc(Nc2ccc([C@@H]3O[C@H]4CN[C@@H]3C4)cc2)nc1 [Example 24, 5-Chloro-N-[4-[(1R,3S,4R)-2-oxa-5-azabicyclo[2.2.1]heptan-3-yl]phenyl]pyridin-2-amine] | 0.0318 | 0.0033 |
| O=C(Nc1ccc([C@H]2O[C@@H]3CN[C@H]2C3)cc1)c1ccnc(C(F)(F)F)c1 [Example 25, N-[4-[(1S,3R,4S)-2-Oxa-5-azabicyclo[2.2.1]heptan-3-yl]phenyl]-2-(trifluoromethyl)pyridine-4-carboxamide] | 0.327 | 0.0224 |
| O=C(Nc1ccc([C@@H]2O[C@H]3CN[C@@H]2C3)cc1)c1ccnc(C(F)(F)F)c1 [Example 26, N-[4-[(1R,3S,4R)-2-Oxa-5-azabicyclo[2.2.1]heptan-3-yl]phenyl]-2-(trifluoromethyl)pyridine-4-carboxamide] | 0.137 | 0.0223 |
| O=C(Nc1ccc([C@@H]2O[C@H]3CN[C@@H]2C3)cc1)c1ccc(OCC(F)(F)F)nc1 [Example 27, N-[4-[(1R,3S,4R)-2-Oxa-5-azabicyclo[2.2.1]heptan-3-yl]phenyl]-6-(2,2,2-trifluoroethoxy)pyridine-3-carboxamide] | 0.0417 | 0.0097 |
| CCOc1ccc(C(=O)Nc2ccc([C@@H]3O[C@H]4CN[C@@H]3C4)cc2)cc1 [Example 28, 4-Ethoxy-N-[4-[(1R,3S,4R)-2-oxa-5-azabicyclo[2.2.1]heptan-3-yl]phenyl]benzamide] | 0.178 | 0.0043 |
| O=C(Nc1ccc([C@@H]2O[C@H]3CN[C@@H]2C3)cc1)c1cnc(C2CC2)nc1 [Example 29, 2-Cyclopropyl-N-[4-[(1R,3S,4R)-2-oxa-5-azabicyclo[2.2.1]heptan-3-yl]phenyl]pyrimidine-5-carboxamide] | 0.0438 | 0.0315 |
| FC(F)(F)c1cnc(Nc2ccc([C@@H]3O[C@H]4CN[C@@H]3C4)cc2)cn1 [Example 30, N-[4-[(1R,3S,4R)-2-Oxa-5-azabicyclo[2.2.1]heptan-3-yl]phenyl]-5-(trifluoromethyl)pyrazin-2-amine] | 0.276 | 0.0291 |
| FC(F)(F)c1cnc(Nc2ccc([C@@H]3O[C@H]4CN[C@@H]3C4)cc2)nc1 [Example 31, N-[4-[(1R,3S,4R)-2-Oxa-5-azabicyclo[2.2.1]heptan-3-yl]phenyl]-5-(trifluoromethyl)pyrimidin-2-amine] | 0.0777 | 0.0221 |
| O=C(Nc1ccc([C@H]2O[C@@H]3CN[C@H]2C3)cc1)c1ccc(OCC2CC2)cc1 [Example 32, 4-(Cyclopropylmethoxy)-N-[4-[(1S,3R,4S)-2-oxa-5-azabicyclo[2.2.1]heptan-3-yl]phenyl]benzamide] | 0.164 | 0.0063 |
| O=C(Nc1ccc(Cl)cc1)Nc1ccc([C@H]2O[C@@H]3CN[C@H]2C3)cc1 [Example 33, 1-(4-Chlorophenyl)-3-[4-[(1S,3R,4S)-2-oxa-5-azabicyclo[2.2.1]heptan-3-yl]phenyl]urea] | 0.0116 | 0.0035 |
| CCc1ncc(C(=O)Nc2ccc([C@H]3O[C@@H]4CN[C@H]3C4)cc2)cn1 [Example 34, 2-Ethyl-N-[4-[(1S,3R,4S)-2-oxa-5-azabicyclo[2.2.1]heptan-3-yl]phenyl]pyrimidine-5-carboxamide] | 0.457 | 0.0563 |
| FC(F)(F)c1cc(Nc2ccc([C@H]3O[C@@H]4CN[C@H]3C4)cc2)ccn1 [Example 35, N-[4-[(1S,3R,4S)-2-Oxa-5-azabicyclo[2.2.1]heptan-3-yl]phenyl]-2-(trifluoromethyl)pyridin-4-amine] | 0.819 | 0.011 |
